Legend:
murine integrin α4β1 [1] = target: T1, murine integrin α4β1 (Mus musculus, UniProt P09055+Q00651); experiment: 70Z3 cell adhesion to VCAM-1; assay type: cell-based
T1 construct: endogenous in cells; host or cells: 70Z3 cells

integrin α4β1 [2] = target: T2, integrin α4β1 (Homo sapiens, UniProt P05556+P13612); experiment: K562(α4β1) cell adhesion to CS-1; assay type: cell-based; set-up: expressed in transfected cells; host or cells: K562(α4β1) cells
Description: A. Structure of TBC3486. B. Structure of THI0510 (TBC3486 modified with conjugatable linker [TBC3486-conj] for functionalization with reactive dye and/or chelator reagents). C. TBC3486 and THI0510 inhibition of α4β1-K562 cell adhesion to the CS-1 sequence from fibronectin.
A. Conjugated THI375 analogue. B. THI375 analogue conjugated to the fluorescent dye sulfo-Cy5 (THI526). C. Activity of THI527, THI526, and TBC-4746 in K562-α4β1/CS-1 adhesion assays performed in Mn++.
First attempts to generate an integrin α4β1 imaging agent took advantage of the TBC3486 core scaffold. Modifications to the core scaffold were generated to determine an appropriate site to which imaging conjugates could be attached (FIG. 1). […] Next, imaging agents were attached to this conjugation site and their activities tested in cell adhesion assays.

integrin α4β1 [3] = target: T2, integrin α4β1; experiment: K562(α4β1) cell adhesion to VCAM-1; assay type: cell-based; set-up: expressed in transfected cells; host or cells: K562(α4β1) cells
Method: A, B. Structure of THI520 and THI528. C. THI520 and THI0528 inhibition of α4β1-K562 cell adhesion to VCAM-1 (Mn++).
(§1) The core of this structure is different than that of TBC3486 (FIG. 3A). […] THI528 was tested for binding to integrin α4β1by flow cytometry (FIG. 4). Jurkat cells that express the integrin α4β1 (Jurkat(α4β1)), or mutagenized Jurkat cells that no longer express the integrin α4β1 (Jurkat(α4^null)), where incubated with increasing concentrations of THI528.

integrin α4β1 [4] = target: T2, integrin α4β1; experiment: Flow cytometry binding to K562(α4β1) cells; set-up: expressed in transfected cells; host or cells: K562(α4β1) cells; conditions: cations Mn
integrin α4β1 [5] = target: T2, integrin α4β1; experiment: Flow cytometry binding to Jurkat cells; conditions: for IC50: Jurkat, Flow Cytometry, Human
Method: B. Individual histograms of 10 nM dose of THI528±EDTA.
as §1

murine integrin α4β1 [6] = target: T1, murine integrin α4β1; experiment: Flow cytometry binding to 70Z3 cells; conditions: 70Z3, Flow Cytometry, cations Mn
[7] = 70Z3, substrate VCAM-1, cations Ca/Mg
[8] = 70Z3, substrate VCAM-1, cations Mn
[9] = K562(α4β1), substrate CS-1, cations Mn, Human
[10] = K562(α4β1), substrate VCAM-1, cations Ca/Mg, Human (low affinity α4β1 adhesion assay), read-out: Activity (IC50) (converted)

T1 sequence (Q00651 41-1039): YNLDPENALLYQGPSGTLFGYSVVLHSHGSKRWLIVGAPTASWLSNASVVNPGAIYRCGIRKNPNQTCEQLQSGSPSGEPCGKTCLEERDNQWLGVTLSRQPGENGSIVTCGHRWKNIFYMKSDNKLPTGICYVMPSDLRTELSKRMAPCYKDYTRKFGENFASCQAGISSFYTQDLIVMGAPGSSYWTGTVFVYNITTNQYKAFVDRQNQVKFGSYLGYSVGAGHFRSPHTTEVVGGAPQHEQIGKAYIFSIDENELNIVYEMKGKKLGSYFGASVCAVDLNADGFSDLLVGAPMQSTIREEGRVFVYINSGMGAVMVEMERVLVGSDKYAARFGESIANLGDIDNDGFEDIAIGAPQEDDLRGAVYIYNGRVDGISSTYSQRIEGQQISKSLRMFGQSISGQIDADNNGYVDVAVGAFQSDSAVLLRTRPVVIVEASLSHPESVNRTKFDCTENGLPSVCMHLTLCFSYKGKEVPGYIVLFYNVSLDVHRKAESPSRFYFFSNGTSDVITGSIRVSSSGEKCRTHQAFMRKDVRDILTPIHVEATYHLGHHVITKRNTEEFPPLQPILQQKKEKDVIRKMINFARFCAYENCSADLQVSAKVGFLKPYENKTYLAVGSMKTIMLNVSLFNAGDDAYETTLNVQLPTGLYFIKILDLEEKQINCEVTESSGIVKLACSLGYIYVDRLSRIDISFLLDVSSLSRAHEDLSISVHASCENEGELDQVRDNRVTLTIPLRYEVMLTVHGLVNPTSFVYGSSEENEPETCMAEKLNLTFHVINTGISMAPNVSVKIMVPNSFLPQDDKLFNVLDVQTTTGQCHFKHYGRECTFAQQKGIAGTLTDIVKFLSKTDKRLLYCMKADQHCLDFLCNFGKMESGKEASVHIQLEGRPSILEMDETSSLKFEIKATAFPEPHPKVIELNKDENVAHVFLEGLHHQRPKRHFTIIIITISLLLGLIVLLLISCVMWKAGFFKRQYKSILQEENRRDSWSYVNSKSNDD
T1 sequence (P09055 21-798): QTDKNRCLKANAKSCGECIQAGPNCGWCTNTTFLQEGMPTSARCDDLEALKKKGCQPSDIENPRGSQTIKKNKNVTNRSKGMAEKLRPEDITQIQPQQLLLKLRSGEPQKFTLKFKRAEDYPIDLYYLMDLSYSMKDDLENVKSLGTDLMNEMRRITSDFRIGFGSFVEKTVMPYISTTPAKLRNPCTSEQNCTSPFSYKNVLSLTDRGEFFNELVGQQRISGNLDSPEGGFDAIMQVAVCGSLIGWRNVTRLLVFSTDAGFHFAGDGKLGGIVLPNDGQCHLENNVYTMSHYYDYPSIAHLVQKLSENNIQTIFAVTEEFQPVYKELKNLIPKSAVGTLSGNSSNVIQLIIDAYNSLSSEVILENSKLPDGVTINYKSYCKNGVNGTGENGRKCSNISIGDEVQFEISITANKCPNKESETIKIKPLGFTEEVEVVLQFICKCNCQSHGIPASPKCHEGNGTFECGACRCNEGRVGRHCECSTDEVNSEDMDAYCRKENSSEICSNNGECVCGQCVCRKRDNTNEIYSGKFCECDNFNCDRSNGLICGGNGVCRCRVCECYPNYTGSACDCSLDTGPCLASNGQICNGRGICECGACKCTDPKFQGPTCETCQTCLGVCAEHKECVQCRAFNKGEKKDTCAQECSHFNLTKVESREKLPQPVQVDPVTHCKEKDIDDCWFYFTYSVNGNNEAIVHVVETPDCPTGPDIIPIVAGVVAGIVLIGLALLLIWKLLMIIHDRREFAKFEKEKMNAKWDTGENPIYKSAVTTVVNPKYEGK
T2 sequence (P13612 34-1032): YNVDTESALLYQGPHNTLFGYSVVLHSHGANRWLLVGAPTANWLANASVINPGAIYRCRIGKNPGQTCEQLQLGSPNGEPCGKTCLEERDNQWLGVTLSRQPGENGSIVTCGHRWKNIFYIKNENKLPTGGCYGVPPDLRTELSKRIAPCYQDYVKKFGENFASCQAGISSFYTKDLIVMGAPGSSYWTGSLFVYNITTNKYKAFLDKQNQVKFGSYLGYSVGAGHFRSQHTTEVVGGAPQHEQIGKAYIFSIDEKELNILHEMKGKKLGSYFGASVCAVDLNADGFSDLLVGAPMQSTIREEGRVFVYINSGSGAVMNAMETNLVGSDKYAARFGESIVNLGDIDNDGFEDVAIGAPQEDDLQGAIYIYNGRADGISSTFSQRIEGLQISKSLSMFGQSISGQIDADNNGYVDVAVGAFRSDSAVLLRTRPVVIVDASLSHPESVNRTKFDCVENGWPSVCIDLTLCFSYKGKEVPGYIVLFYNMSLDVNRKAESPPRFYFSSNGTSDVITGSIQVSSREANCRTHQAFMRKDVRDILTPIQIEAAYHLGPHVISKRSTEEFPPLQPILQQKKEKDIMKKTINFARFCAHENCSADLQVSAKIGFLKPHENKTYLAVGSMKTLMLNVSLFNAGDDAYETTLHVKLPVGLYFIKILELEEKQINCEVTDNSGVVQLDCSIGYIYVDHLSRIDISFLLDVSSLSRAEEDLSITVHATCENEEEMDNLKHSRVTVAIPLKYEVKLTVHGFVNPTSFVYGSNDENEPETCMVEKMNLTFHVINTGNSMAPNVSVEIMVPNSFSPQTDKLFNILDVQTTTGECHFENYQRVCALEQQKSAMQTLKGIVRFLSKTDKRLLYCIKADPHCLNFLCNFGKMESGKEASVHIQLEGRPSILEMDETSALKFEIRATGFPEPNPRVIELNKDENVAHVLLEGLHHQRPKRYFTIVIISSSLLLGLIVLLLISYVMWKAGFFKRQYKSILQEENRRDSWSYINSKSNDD
T2 sequence (P05556 21-798): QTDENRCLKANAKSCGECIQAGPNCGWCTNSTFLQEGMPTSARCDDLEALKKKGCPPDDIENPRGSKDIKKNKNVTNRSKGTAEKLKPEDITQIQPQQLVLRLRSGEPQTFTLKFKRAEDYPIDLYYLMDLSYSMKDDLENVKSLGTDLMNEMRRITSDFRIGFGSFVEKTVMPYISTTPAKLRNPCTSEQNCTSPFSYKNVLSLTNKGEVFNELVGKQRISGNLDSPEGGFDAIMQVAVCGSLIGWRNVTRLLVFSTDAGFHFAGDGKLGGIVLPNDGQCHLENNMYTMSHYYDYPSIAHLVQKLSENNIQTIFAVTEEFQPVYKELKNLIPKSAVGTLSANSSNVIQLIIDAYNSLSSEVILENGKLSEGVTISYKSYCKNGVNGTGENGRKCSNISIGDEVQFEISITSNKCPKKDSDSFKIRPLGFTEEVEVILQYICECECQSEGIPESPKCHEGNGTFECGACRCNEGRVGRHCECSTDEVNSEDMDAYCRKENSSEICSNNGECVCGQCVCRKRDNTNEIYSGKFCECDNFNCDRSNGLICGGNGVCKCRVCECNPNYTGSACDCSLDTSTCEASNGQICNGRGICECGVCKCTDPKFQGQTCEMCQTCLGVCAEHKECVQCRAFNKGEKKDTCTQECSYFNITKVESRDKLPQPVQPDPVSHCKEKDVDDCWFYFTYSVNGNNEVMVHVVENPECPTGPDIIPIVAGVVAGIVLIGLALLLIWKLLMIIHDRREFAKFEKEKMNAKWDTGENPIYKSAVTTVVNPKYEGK

IC50 (integrin α4β1 [2]; [9]) [nM]	IC50 (integrin α4β1 [5]; cations Mn) [nM]	Structure (SMILES)	IC50 (murine integrin α4β1 [1]; [7]) [nM]	IC50 (murine integrin α4β1 [1]; [8]) [nM]	IC50 (integrin α4β1 [3]; [10]) [nM]	other results
1700 ± 1000		C[N+]1=C(/C=C/C=C/C=C2/N(CCCCCC(=O)NCCCCCC(=O)NCCCC[C@@H](NC(=O)N[C@H](CC(=O)O)c3ccc4c(c3)OCO4)C(=O)N(Cc3cccs3)Cc3cccs3)c3ccc(S(=O)(=O)[O-])cc3C2(C)C)C(C)(C)c2cc(S(=O)(=O)O)ccc21 [THI517]				IC50 (integrin α4β1 [4]): > 1000 nM
	0.069	CCOc1cccc([C@H](CC(=O)O)NC(=O)Nc2c(OCCCCCCNC(=O)CCCCC[N+]3=C(/C=C/C=C/C=C4/N(C)c5ccc(S(=O)(=O)[O-])cc5C4(C)C)C(C)(C)c4cc(S(=O)(=O)[O-])ccc43)c(C)cn(Cc3c(Cl)cccc3OCC)c2=O)c1.[Na+] [THI528]				Kd (integrin α4β1 [5]; Jurkat(α4β1) cells, flow cytometry, n=1, read-out: apparent Kd): 0.26 nM; IC50 (integrin α4β1 [5]; cations Ca/Mg): 0.202 nM; binding to Jurkat cells expressing α4β1 (integrin α4β1 [5]; flow cytometry, increasing concentrations): Specific and saturable binding; binding in presence of EDTA or to Jurkat cells lacking α4β1 (integrin α4β1 [5]; flow cytometry, EDTA or Jurkat(α4β1) cells as printed): no detectable binding; IC50 (murine integrin α4β1 [6]): 0.06 nM; antagonist activity after conjugation to sulfo-Cy5 (integrin α4β1 [3]; compared with THI520): no apparent loss in antagonist activity; IC50 (integrin α4β1 [3]; n=3, same value as Table 2 K562(α4β1)/VCAM-1/Mn, read-out: a4b1 IC50): 0.519 ± 0.097 nM

More lines, now with the values behind:

Structure (SMILES)	IC50 (integrin α4β1 [2]; [9]) [nM]	IC50 (integrin α4β1 [5]; cations Mn) [nM]	IC50 (murine integrin α4β1 [1]; [7]) [nM]	IC50 (murine integrin α4β1 [1]; [8]) [nM]	IC50 (integrin α4β1 [3]; [10]) [nM]	other results
Cc1ccc([C@H](CC(=O)O)NC(=O)Nc2c(O)c(C)cn(Cc3ccccc3Cl)c2=O)cc1 [THI375]	2.2 ± 0.53		10300	127	810	IC50 (integrin α4β1 [3]; K562(α4β1), substrate VCAM-1, cations Mn, Human, read-out: Activity (IC50) (converted)): 1.4 nM
CCOc1cccc([C@H](CC(=O)[O-])NC(=O)Nc2c([O-])c(C)cn(Cc3c(Cl)cccc3OCC)c2=O)c1.[Na+].[Na+] [THI520]	0.11 ± 0.04		129	0.75	6.3 ± 3.1	activity in high affinity assays (integrin α4β1 [2]; high affinity α4β1 adhesion assays): pM activity
C[N+]1=C(/C=C/C=C/C=C2/N(CCCCCC(=O)NCCCCCC(=O)O)c3ccc(S(=O)(=O)[O-])cc3C2(C)C)C(C)(C)c2cc(S(=O)(=O)[O-])ccc21.[Na+] [THI529]						Activity (IC50) (integrin α4β1 [2]; K562(α4β1), substrate CS-1, cations Mn, Human, result in words): No Activity (n = 3) K562(α4β1)
CCOc1cccc([C@H](CC(=O)O)NC(=O)Nc2c(OCCCCCCNC(=O)C(CNC(=O)C(CNC(=O)CCCCC[N+]3=C(/C=C/C=C/C=C4/N(C)c5ccc(S(=O)(=O)[O-])cc5C4(C)C)C(C)(C)c4cc(S(=O)(=O)O)ccc43)S(=O)(=O)O)S(=O)(=O)O)c(C)cn(Cc3c(Cl)cccc3OCC)c2=O)c1 (stereo partly shown) [THI540]		0.078 ± 0.037				

From patent US20210393811A1, “Imaging Agents and Methods of Use” (Texas Heart Institute, priority 2018, published 2021)
